Source: patent US12215081B2, “Pharmaceutical intermediate” (ZAKLADY FARM[…] S.A., priority 2019, dated 2025)

Test: Stability of 4-(4-fluorobenzylamino)-1-methylpiperidine (oil) and its trihydrate stored in a sealed container, purity and impurities over time
Format: physicochemical
Settings: for decrease in purity: crude oil, sealed container
Procedure: The stability of the crude 4-(4-fluorobenzylamino)-1-methylpiperidine oil obtained by the process described in Example 1 was also assessed.
The crude 4-(4-fluorobenzylamino)-1-methylpiperidine oil decreased in purity by 0.5% after 1 month and 0.7% after 2.5 months.

[1] = Batch 3, sealed container, 0 months
[2] = Batch 3, sealed container, 1 month
[3] = Batch 4, sealed container, 0 months
[4] = Batch 4, sealed container, 2.5 months

SMILES	stability on storage (decomposition) (stored under the same conditions as the amine oil (sealed container))	Amine purity [1]	impurity I (% impurity) [1]	impurity II (% impurity) [1]	impurity III (% impurity) [1]	Amine purity [2]	impurity I (% impurity) [2]	impurity II (% impurity) [2]	impurity III (% impurity) [2]	Amine purity [3]	impurity I (% impurity) [3]	impurity II (% impurity) [3]	impurity III (% impurity) [3]	Amine purity [4]	impurity I (% impurity) [4]	impurity II (% impurity) [4]	impurity III (% impurity) [4]	decrease in purity (after 1 month)	decrease in purity (after 2.5 months)
CN1CCC(NCc2ccc(F)cc2)CC1 [4-(4-fluorobenzylamino)-1-methylpiperidine trihydrate]	stable, and no decomposition was observed	–	–	–	–	–	–	–	–	–	–	–	–	–	–	–	–	–	–
CN1CCC(NCc2ccc(F)cc2)CC1 [4-(4-fluorobenzylamino)-1-methylpiperidine]	–	Amine - 98.17% pure	I/(0.21) %	II/(0.12) %	III/(0.27) %	Amine - 97.66% pure	I/(0.26) %	II/(0.21) %	III/(0.59) %	Amine - 97.82% pure	I/(0.23) %	II/(0.12) %	III/(0.68) %	Amine - 97.09% pure	I/(0.18) %	II/(0.14) %	III/(1.15) %	0.5%	0.7%
